The values that follow come from patent US20100120871A1, “HAIR CARE COMPOSITIONS, METHODS, AND ARTICLES OF COMMERCE THAT CAN INCREASE THE APPEARANCE OF THICKER AND FULLER HAIR” (priority 2008, published 2010).

For this assay, the system named is primary human dermal papilla cells. In words: Survival of metabolically stressed primary human dermal papilla cells (ATP, Cell Titer Glo). It counts as cell-based. Set-up: unit not given here. The settings on record: DP cells metabolically stressed 48 hours in reduced media, ATP by Cell Titer Glo, vehicle = 0. Here is the method:
Primary human dermal papilla cells were metabolically stressed for 48 hours in reduced standard tissue culture media. During this period of stress the cells were treated with the mixtures below dosed from a DMSO vehicle. After 48 hours the metabolic activity of the cells was measured by the amount of ATP using the Cell Titer Glo™ kit (Promega).
The dermal papilla, in normal human hair, is the control center for hair diameter. Increasing survival of dermal papilla cells in situ leads to increased hair diameter. Accordingly, an increase in survival of dermal papilla cells correlates with an increase in hair diameter.

SMILES strings stand for the structures.

With `OCc1c[nH]c2ccccc12` [Example I3C, Indole-3-Carbinol], the Survival is −0.16 (Table 2A) and 0.08 (Table 2B).

Where the note is “Table 3”, `OCCc1c[nH]c2ccccc12` [HI, Tryptophol] gave a Survival of 1.72.

Regarding `O=C(O)Cc1c[nH]c2ccccc12` [IAA, indole-3-acetic acid], the Survival is listed as −0.17 (Table 1A) and −0.18 (Table 1B).

With `NC(=O)c1cccnc1` [Niacinamide, niacinamide], the Survival is reported as −0.02 (Table 1A), −0.02 (Table 1B), −0.16 (Table 2A) and 0.1 (Table 2B).

In the case of `CC(C)(CO)[C@@H](O)C(=O)NCCCO` [Panthenol, panthenol], the Survival was −0.17 (Table 1A), −0.17 (Table 1B), −0.01 (Table 2A) and −0.13 (Table 2B).
